What was measured:
Creb1, Bdnf, Rbbp4 = test: Plasticity gene expression by quantitative real time PCR in mouse primary neurons; assay type: cell-based
Procedure: Primary immature neuronal cultures were prepared from cerebral cortex of E14 embryos (day 14 of gestation) of CD1 mice under sterile conditions. Dissected cortices were incubated at 37° C. for 20 min in EBSS solution containing papain, L-cystine and EDTA, which was activated at 37 °C for 30 min and then was filtered through […] (Millipore, catalog number—SCGP00525). Cortices were then mechanically dissociated by trituration with glass pipettes. The rDNase was added in dissociated cells followed by incubation of these dissociated cells at 37 °C for 3 min. Thereafter, these cells were centrifuged at 2800 rpm for 5 min. Then supernatant was discarded, and cell were resuspended gently in a 5 ml mixture of EBSS and 10/10 solution (4:1 ratio). Then 5 ml of 10/10 solution was added gently on top and these resuspended cells were centrifuged at 2800 rpm for 10 min. Supernatant was again discarded and cells were resuspended in 10 ml MEM, Glutamax supplement (Thermo Fisher Scientific, Catalog number—41090036) containing 10% heat inactivated fetal bovine serum (Thermo Fisher Scientific, Catalog number—16140071), 5% heat inactivated horse serum (Thermo Fisher Scientific, Catalog number—26050088), and 1% penicillin/streptomycin (Thermo Fisher Scientific, Catalog number—15140122). Thereafter, resuspended cells were filtered through 70-micron cell strainer (Thomas Scientific, catalog number—4620F02) followed by their counting through Hemocytometer. Cells were, finally, plated at the density of 1 million cells/ml onto poly-D-Lysine (PDL; Sigma Aldrich, catalog number—P6407-10X5MG) coated pates and placed in CO2-buffered incubators at 37° C.
Total RNA was extracted from primary cortical neurons using NucleoSpin RNA II Kit (Clontech, Catalog number—740955-250). Thereafter, using the Taqman RNA-to-Ct, one step kit (Thermo Fisher Scientific, catalog number—4392938) and following the manufacturer's instructions, […] from each sample was mixed with the Taqman® Gene Expression Master Mix and Taqman® Gene Expression Assays for Creb1 (Catalog number—Mm00501607_m1), Bdnf (Catalog number—Mm04230607_s1), Rbbp4 (Catalog number—Mm00771401_g1), Bip (Catalog number—Mm00517691_m1), Trib3 (Catalog number—Mm00454879_m1), and Chac1 (Catalog number—Mm00509926_m1) with FAM labelled probe and Actin with VIC labelled probe all from Thermo Fisher Scientific on an Applied Biosystems 7500 Fast Real Time PCR System. For assessing gene expression of various specific Bdnf exons in mouse primary neurons, two step qPCR was used. Total RNA from primary cortical neurons was extracted using NucleoSpin RNA II Kit (Clontech, Catalog number—740955-250) and a total of 1.5 μg RNA was used to synthesize cDNA with the SuperScript® III First-Strand Synthesis System (Thermo Fisher Scientific, Catalog number—18080051). Quantitative RT-PCR was then performed using SYBR green (Thermo Fisher Scientific, Catalog number—4309155) on an Applied Biosystems 7500 Fast Real Time PCR System. Quantitative levels for all genes were normalized to the housekeeping gene GAPDH and expressed relative to the relevant control samples as fold change. The sequences of primers used in this part of the study were as follows: Bdnf I forward: […] (SEQ ID NO:9) and Bdnf I reverse: […] (SEQ ID NO:10); Bdnf II forward: […] (SEQ ID NO:11) and Bdnf II reverse: […] (SEQ ID NO:12); Bdnf IV forward #2: […] (SEQ ID NO:13) and Bdnf IV reverse #2: […] (SEQ ID NO:14); Bdnf VI forward: […] (SEQ ID NO:15) and Bdnf VI reverse: […] (SEQ ID NO:16); Bdnf VII forward: […] (SEQ ID NO:17) and Bdnf VII reverse: […] (SEQ ID NO:18) Bdnf IX forward: […] (SEQ ID NO:19) and Bdnf IX reverse: […] (SEQ ID NO:20); Gapdh forward #2: […] (SEQ ID NO:21) and Gapdh reverse #2: […] (SEQ ID NO: 22).

hippocampal slices = test: Long term potentiation (fEPSP) in submerged hippocampal slices; set-up: species or system mouse; conditions: 10 mM for 6 h in ACSF
Source text: Brains were quickly removed from mice sacrificed by cervical dislocation and placed in cold artificial cerebrospinal fluid (ACSF) (bubbled with 95% O2/5% CO2) containing (in mM): 124 NaCl, 4 KCl, 1 Na2HPO4, 25 NaHCO3, 2 CaCl2, 2 MgCl2, and 10 glucose. The pH and osmolarity of the solution were 7.4 and 310 mOsm/L, respectively. The hippocampus was isolated and placed on a mechanical tissue chopper to produce transverse hippocampal slices of 400 μm thickness. […] Hippocampal slices were allowed to recover for at least 90 min prior to beginning the experiment. For recordings, glass electrodes were filled with ACSF and positioned in the CA1 stratum radiatum to record fEPSPs evoked by local stimulation (0.1 ms) of Schaffer collateral fibers using a bipolar concentric electrode placed laterally to the recording electrode (˜150 μm). For LTP recordings, the voltage intensity of the stimulation test pulse (square pulse, 100 us duration) for each slice was determined to be the voltage intensity that had generated 30-40% of the maximum slope obtained using input-output relationships. Facilitation was calculated as the ratio of the slopes of the second and first fEPSPs, and plotted as a function of the inter-pulse duration. For LTP, a test pulse was applied every minute. […] Residual potentiation was calculated as the average of the last 15 min of 2 h of recordings.

[1] = test system: Trib3 promoter, Bdnf promoter; test: Promoter reporter luciferase assay in primary neurons; assay type: cell-based, mouse; conditions: 2-DG 9 h treatment, reporter in mouse primary neurons
Procedure: Primary neurons were co-transfected with various plasmids such as different Bdnf exon promoters each tagged with firefly luciferase or Trib3 promoter tagged with firefly luciferase and pTK-renilla luciferase plasmid at 1:10 ratio using Lipofectamine 2000 (Thermo Fisher Scientific, catalog number—11668019) according to the manufacturer's instructions to control for transfection efficiency. […] Thereafter, luciferase activity was measured using dual luciferase assay kit (Promega) and bioluminometer (MDS Analytical Technologies). Final luciferase activity was calculated by normalizing firefly luciferase activity with Renilla luciferase activity and then the valued were converted to fold change with respect to control.

[2] = test system: triple transgenic model of AD; conditions: cited from earlier work

OC[C@H]1OC(O)C[C@@H](O)[C@@H]1O (stereo partly drawn) [2-DG, (4R,5S,6R)-6-(hydroxymethyl)oxane-2,4,5-triol]
endogenous mRNA levels of six Bdnf transcript variants (Creb1, Bdnf, Rbbp4; 10 mM, 6 h, mouse primary neurons): all transcript variants were upregulated | Creb1 and Bdnf gene expression with AMPK phosphorylation knocked down (Creb1, Bdnf, Rbbp4; adenoviral dominant negative AMPK, increasing concentrations of 2-DG): did not block 2-DG led increase in Creb1 and Bdnf gene expression | Bdnf gene expression with dominant negative ATF4 (Creb1, Bdnf, Rbbp4; adenoviral dominant negative ATF4, 2-DG 6 h treatment): ATF4 knockdown blocked 2-DG led increase in Bdnf gene expression | plasticity gene program in depolarized primary neurons (Creb1, Bdnf, Rbbp4; increasing concentration, co-treated with 25 mM KCl, 6 h): dose dependent increase in plasticity gene program | changes in Bdnf gene expression (Creb1, Bdnf, Rbbp4; increasing concentrations 1-15 mM, primary cortical neurons): does dependent | expression of plasticity genes Creb1, Bdnf and Rbbp4 (mRNA) (Creb1, Bdnf, Rbbp4; increasing concentrations, 6 h, mouse primary neurons): dose-dependent increase | LTP in submerged hippocampal slices (hippocampal slices): significant increase | Trib3 promoter activity with or without mutation in ATF4 binding site [1]: ATF4 binding site mutation completely blocked the 2-DG led induction of Trib3 promoter activity | brain energy metabolism and amyloid pathology [2]: improve brain energy metabolism and amyloid pathology
